Results on eleven compounds are retold here after ChEMBL document CHEMBL1921746, “Chemical constituents of the rhizomes of Hedychium coronarium and their inhibitory effect on the pro-inflammatory cytokines production LPS-stimulated in bone marrow-derived dendritic cells” (Bioorg Med Chem Lett, 2011).

Molecules are shown by their SMILES. The source made the active and inactive calls. No cut-off for these calls is given here.

For data set [1], the system named is BMDC. As to the kind of experiment: Antiinflammatory activity in C57BL/6 mouse BMDC assessed as inhibition of LPS-stimulated TNF-alpha production up to 50 uM preincubated for 1 hr before LPS-stimulation measured after 16 hrs by ELISA. The class given is functional.
Data set [2] concerns BMDC. Description: Antiinflammatory activity in C57BL/6 mouse BMDC assessed as inhibition of LPS-stimulated IL-6 production up to 50 uM preincubated for 1 hr before LPS-stimulation measured after 16 hrs by ELISA. The class given is functional. Background: In an ELISA, binding on a coated surface is turned into a signal by an enzyme label.
Data set [3] deals with BMDC. Description: Antiinflammatory activity in C57BL/6 mouse BMDC assessed as inhibition of LPS-stimulated IL-12p40 production up to 50 uM preincubated for 1 hr before LPS-stimulation measured after 16 hrs by ELISA. The class given is functional.
The nature of data set [4]: Antiinflammatory activity in C57BL/6 mouse BMDC assessed as inhibition of LPS-stimulated TNF-alpha production preincubated for 1 hr before LPS-stimulation measured after 16 hrs by ELISA. It is filed as functional.
The nature of data set [5]: Antiinflammatory activity in C57BL/6 mouse BMDC assessed as inhibition of LPS-stimulated IL-12p40 production preincubated for 1 hr before LPS-stimulation measured after 16 hrs by ELISA. It is filed as functional.
Data set [6] is described as follows: Antiinflammatory activity in C57BL/6 mouse BMDC assessed as inhibition of LPS-stimulated IL-6 production preincubated for 1 hr before LPS-stimulation measured after 16 hrs by ELISA. It is filed as functional.
Data set [7] can be described thus: Cytotoxicity against C57BL/6 mouse BMDC assessed as reduction of cell viability by MTT assay. (In general: Tetrazolium dyes change colour on reduction, which living cells bring about.)

As for `C=C[C@@](C)(O)CC/C=C(\C)CCC=C(C)C`, the inhibition result with BMDC [1], with BMDC [2] and in the data set with BMDC [3] was “inactive” in each case.

By IC50 is commonly meant the concentration needed to halve the response being measured. Take `C=C1CC[C@H]2C(C)(C)CCC[C@]2(C)[C@H]1C/C=C1/CC(O)OC1=O` (some centres not stated) [CORONARIN D]: the IC50 in data set [4] is 41.7 µM.

For the compound `C=C1[C@@H](O)C[C@H]2C(C)(C)CCC[C@]2(C)[C@H]1/C=C/C1=CC(=O)OC1O` (some centres not stated) [HEDYFORRESTIN C], the IC50 in data set [5] worked out at 0.19 µM; in data set [4] it was 10.4 µM; in data set [6] it was 3.38 µM.

Take `CC[C@H](/C=C/[C@@H](C)[C@H]1CC[C@H]2[C@@H]3CC=C4C[C@@H](O)CC[C@]4(C)[C@H]3CC[C@]12C)C(C)C`: the inhibition entry with BMDC [1], in the data set with BMDC [2] and in the data set with BMDC [3] was “inactive” in each case.

With `C[S+]([O-])c1ccc(-c2nc(-c3ccc(F)cc3)c(-c3ccncc3)[nH]2)cc1` (configuration not stated) [SB-203580], the IC50 in data set [5] came to 5.02 µM; in data set [4], 7.24 µM; in data set [6], 3.53 µM.

With `C=C1[C@@H](O)C[C@H]2C(C)(C)[C@@H](O)CC[C@]2(C)[C@H]1C/C=C1/COCC1O` (some centres not stated) [CORONARIN I], the Activity entry in data set [7] is given as “Toxic”.

For the compound `CC1(C)CCC[C@]2(C)[C@H]3C/C=C(/C=O)CC(O)CC3=CC(=O)[C@@H]12` (some centres not stated) [CORONARIN H], the 50% inhibitory concentration (IC50) came to 8.02 µM in data set [5], 26.8 µM in data set [4] and 8.93 µM in data set [6].

For the compound `C=C1CC[C@H]2C(C)(C)CCC[C@]2(C)[C@H]1C/C=C1/CC(OC)OC1=O` (some centres not stated) [CORONARIN D METHYL ETHER], the Activity entry in data set [7] is “Toxic”.

Consider `C=C1CC[C@H]2C(C)(C)CCC[C@]2(C)[C@H]1CCC1=CC(OC)OC1=O` (some centres not stated) [CORONARIN G], for which the figures for the IC50 in data set [5], in data set [4] and in data set [6] were 6.6 µM, 12.6 µM and 7.57 µM, respectively.

Regarding `CC[C@H](CC[C@@H](C)[C@H]1CC[C@H]2[C@@H]3CC=C4C[C@@H](O)CC[C@]4(C)[C@H]3CC[C@]12C)C(C)C`, the inhibition entry in the data set on BMDC [1], in the data set on BMDC [2] and with BMDC [3] was “inactive” throughout.

Consider `CC[C@H](CC[C@@H](C)[C@H]1CC[C@H]2[C@@H]3CC=C4C[C@@H](O[C@@H]5O[C@H](CO)[C@@H](O)[C@H](O)[C@H]5O)CC[C@]4(C)[C@H]3CC[C@]12C)C(C)C`, for which the inhibition entry in the data set with BMDC [1], with BMDC [2] and with BMDC [3] was “inactive” each time.
